Patent US9834525B2, “Inhibitors of paxillin function and related compositions and methods” (UNIVERSITY OF TENNESSEE RESEARCH FOUNDATION, priority 2015, dated 2017)
Entries after “also recorded” stand apart in the source; their conditions may differ.

Experiments:
Format in all cases: cell-based, human
ERK1/2 = assay: Western blot of VEGF-induced ERK1/2 phosphorylation in REC; conditions: REC under VEGF; compound (II-4) 500 nM, SU6656 1 μM
Description: REC, Mel 270, OMM 2.5 under Hepatocyte Growth Factor (HGF) or Vascular Endothelial Growth Factor (VEGF) stimulation conditions: Cell lysates were collected in RIPA lysis buffer (50 mM Tris-HCl, pH 7.4, 150 mM NaCl, 2 mM EDTA, 1% Nonidet P-40, 0.1% SDS) with protease 1× inhibitor cocktail (Roche; Indianapolis, Ind.). Lysates were kept on ice and centrifuged at 10,000×g×10 minutes and total protein was measured using the BCA assay (Pierce, Rockford, Ill.). Protein samples were mixed with 4×LDS loading buffer with 2.5% 2-mercaptoethanol (Sigma-Aldrich), heated to 70° C. for 10 minutes, and loaded on NuPAGE 4-12% Bis-Tris gel (Invitrogen, Carlsbad, Calif.). Immunoblotting was performed with nitrocellulose membranes (Bio-Rad, Hercules, Calif.) at 170-mA start and 110-mA end at 25 V for two hours in NuPAGE transfer buffer (Invitrogen) containing 20% methanol. Membranes were blocked using Odyssey blocking buffer (LI-COR; Lincoln, Nebr.) for one hour at room temperature with gentle shaking Membranes were then incubated at 4° C. with specific primary antibodies (1:1000) overnight. Cellular protein was normalized using rabbit-GAPDH or mouse-α-Tubulin [1:20,000] (Cell Signaling, Danvers, Mass.; LI-COR, respectively). […] Dual-channel infrared scan and quantitation of immunoblots were conducted using the ODYSSEY Sa infrared imaging system with Image Studio (Ver. 3.1.4) (LI-COR). […]

[1] = tested on: paxillin (pY118) in OMM 2.5 cells; assay: Western blot of pY118 and total paxillin in HGF-treated metastatic UM cells; conditions: HGF-treated OMM 2.5 cells, 4 hrs
Description: REC, Mel 270, OMM 2.5 under Hepatocyte Growth Factor (HGF) or Vascular Endothelial Growth Factor (VEGF) stimulation conditions: Cell lysates were collected in RIPA lysis buffer (50 mM Tris-HCl, pH 7.4, 150 mM NaCl, 2 mM EDTA, 1% Nonidet P-40, 0.1% SDS) with protease 1× inhibitor cocktail (Roche; Indianapolis, Ind.). Lysates were kept on ice and centrifuged at 10,000×g×10 minutes and total protein was measured using the BCA assay (Pierce, Rockford, Ill.). Protein samples were mixed with 4×LDS loading buffer with 2.5% 2-mercaptoethanol (Sigma-Aldrich), heated to 70° C. for 10 minutes, and loaded on NuPAGE 4-12% Bis-Tris gel (Invitrogen, Carlsbad, Calif.). […] Dual-channel infrared scan and quantitation of immunoblots were conducted using the ODYSSEY Sa infrared imaging system with Image Studio (Ver. 3.1.4) (LI-COR).
Immune studies of the α4β1 integrins (VCAM-1 and VLA-4) show high affinity α4 integrins may initiate signaling cascades through paxillin that regulate leukocytes migration to inflammation sites. […] The levels of total paxillin and pY118 were measured after activation of metastatic-UM (OMM 2.5) cells with Hepatocyte Growth Factor (HGF) to address in vitro if disruption of α4-downstream signaling through paxillin can affect α4-downstream signaling. […]

Mel 270 primary-UM cells = assay: CFSE cellular proliferation, Mel 270; conditions: 96 hrs culture, 1 μM for the last 24 hrs
Description: Harvested cells were resuspended at a concentration of 1.0×10^6 cells/mL in warm PBS/1% FBS. Cells were labeled with […] (Invitrogen) for 5 minutes at 37° C. then quenched on cold growth media (final volume 20 mL) for 10 minutes, twice. Cultured unlabeled cells were used as controls.
To test the hypothesis that inhibition of paxillin will reduce cellular proliferation UM cell lines were labeled with carboxyfluorescein succunimidyl ester (CFSE), a cell tracking dye, and cultured for 96 hrs. A group of cells received treatment with compound (II-4) for the last 24 hours. Maximum CFSE fluorescence was controlled using labeled cells prior culture −0 hr. Negative control was established using unlabeled cells cultured in parallel. Histograms in FIG. 15D show 96 hrs cultured cells divided with a 1-log shift or reduction in CFSE intensity. […] Cell proliferation was not affected in the 92.1 cell line. […]
FIG. 15: The paxillin inhibitor Compound (II-4) selectively affects cellular proliferation of primary UM cells that become metastatic. […] Unlabeled cells were used to control fluorescence. […] B. Quantitation of experiment +/−SD including primary UM that becomes metastatic (Mel 270), metastatic (OMM 2.1) and primary (92.1) UM cells. *P=0.0007 and **P=0.0005. […] Quantitation of VLA-4 protein levels +/−SD from n=3. […]

## COc1cc(C2OC(=O)Nc3c2ccc2ccccc32)cc(OC)c1OC (stereo not drawn) [compound II-4]
ERK1/2
  VEGF-dependent ERK1/2 phosphorylation: No significant change; also recorded: Neither SU6656 nor compound (II-4) decreased
[1]
  ratio of pY118 paxillin to total paxillin (pPax:Pax): dramatically decreased
Mel 270 primary-UM cells
  cell proliferation (CFSE): caused a reduction in cell proliferation
